Data taken from patent US10570401B2, “Compositions and method for destabilizing, altering, and dispersing biofilms” (priority 2013, dated 2020).

How the values were obtained:
[1] = tested on: multi-species oral biofilms; assay: Multi-species oral biofilms developed 20 h in flowing saliva (Bioflux microfluidic system), CLSM live/dead; assay type: cell-based
Description: (§1) The effects of arginine-dependent dosing of S. gordonii biofilms is assessed in a modified Bioflux microfluidics system. Human saliva is collected and pooled from ≥6 different volunteers (Cuadra-Saenz et al., Microbiology. 2012; 158(Pt 7):1783-95), diluted to 25%, and additional supplements (e.g. sucrose, haemin, BHI) added as required to simulate different conditions. Note, we grow robust biofilms in even non-supplemented saliva and pooling the saliva minimizes variation in salivary components. To obtain an indication of free arginine levels in pooled saliva, arginine is measured in ≥3 different pooled saliva samples using standard techniques (Jakubovics et al., supra; Van Wuyckhuyse et al., Journal of dental research. 1995; 74(2):686-90). The 24 channels of the Bioflux system are coated with saliva, inoculated with monocultures of S. gordonii (or multi-species biofilms harvested form saliva) and biofilms are developed at 37° C. with cell free saliva. After 20 h, cells are stained with live/dead stain and visualized using a Leica SPE CLSM. Biomass and structural biofilm parameters are quantified using COMSTAT (Heydorn et al., Microbiology. 2000; 146 (Pt 10):2395-407), ImageJ (Collins, Biotechniques. 2007; 43(1 Suppl):25-30), and IMARIS software (Bitplane, Switzerland).
(§2) This example describes the impact of L-arginine on oral biofilms that contain species grown under conditions representative of the human oral cavity. […] Destabilization was expressed as loss of biofilm structure and change in bacterial community membership, as determined by confocal laser scanning microscopy and 454 pyrosequencing.
Green signal indicates viable live cells and red signal indicates damaged/dead cells. […] Data derived from at-least 18 renderings across three experiments and standard deviations are shown in brackets. *P<0.05; **P<0.01; […]: significant differences from the CFS control.

[2] = tested on: bacterial biofilm communities; assay: L-arginine versus D-arginine on bacterial biofilm communities; assay type: cell-based; conditions: FIG. 11
Source text: Therefore the destabilizing effects of arginine are specific to the L-form.

[3] = tested on: multi-species oral biofilm communities; assay: Multi-species oral biofilms in static (non-flowing) microplate system, CLSM; assay type: cell-based; conditions: 500 mM, static microplate system (FIG. 6)
Source text: Upper renderings (A1-H1) are of the x-y plane. Middle renderings (A2-H2) are of the x-z plane. Lower renderings (A3-H3) represent an angled view (x-y-z). Bars represent 50 μm.

[4] = tested on: AI-2 production by multi-species biofilms; assay: AI-2 bioluminescence assay with Vibrio harveyi BB170 on microfluidics efflux of multi-species biofilms; assay type: cell-based; conditions: fold induction of bioluminescence, increasing arginine concentrations (FIG. 10)
Source text: The AI-2 data are normalized to the “control” (non-supplemented saliva).
Values were produced by first taking averages of 4 trials at each concentration and dividing them by the average for the negative control, creating an induction number. […] High AI-2 may also have a destabilizing effect on the community, which could explain or contribute to the structural changes seen in the biofilms.

S. gordonii biofilms = assay: S. gordonii biofilm formation in saliva, Bioflux microfluidics system; assay type: cell-based
Description: as §1

[5] = tested on: pre-formed multi-species oral biofilms
saliva derived community = assay: Community composition of saliva-derived biofilms by 454 pyrosequencing; assay type: cell-based
Description: Black-colored bars represent data derived from the analysis of biofilms developed in flowing non-supplemented saliva while the grey-colored bars represent data derived from the analysis of biofilms developed in 500 mM supplemented saliva. (B) Showing changes in phyla (color coding as before). (C) Showing changes in composition of genera (key is from left to right in order from bottom to top in bar; Neisseria, Granulicatella, Streptococcus, etc).
as §2

S. gordonii DL1 = assay: Fluorescent reporter plasmid (pPE1010) expression in S. gordonii DL1 biofilms on exogenous AI-2; assay type: cell-based; conditions: exogenously added AI-2 (FIG. 12B)
Source text: A plasmid (See e.g., FIG. 12) was utilized to monitor expression of reporter genes in the presence of arginine or AI-2. The pPE1010 backbone described in England et al. (Proc Natl Acad Sci USA. 2004 Nov. 30; 101(48):16917-22. Epub 2004 Nov. 16) was modified to express fluorescent genes such as GFP or Mcherry in S. gordonii DL1 or other species of streptococci. Specifically, promoters from differentially regulated genes are inserted upstream of a GFP or Mcherry gene harbored on pPE1010 (or similar streptococcal plasmid shuttle vector system) to be differentially expressed (FIGS. 12A and 12B). […] The plasmid provides constitutive-producing fluorescent probes for monitoring bacteria in biofilms and reporter systems that report arginine (or AI-2) concentrations in biofilms such as those found in dental plaque biofilms.

Compound: Cl.N=C(N)NCCC[C@H](N)C(=O)O [LAHCL, L-arginine monohydrochloride]
- changes in pH ([1]; HCl balanced L-arginine in human saliva): No substantial changes in pH
- destabilization of oral biofilms (loss of biofilm structure, change in community membership) ([1]; human saliva inoculum, 25% filter-sterilized saliva): destabilizes oral biofilms in a concentration dependent manner
- antimicrobial effects ([1]; only detected as a consequence of biofilm perturbation): Very limited antimicrobial effects

Compound: N=C(N)NCCC[C@@H](N)C(=O)O [D-arginine, reference compound]
- disruption of bacterial biofilm communities [2]: does not have the same effect

Compound: N=C(N)NCCC[C@H](N)C(=O)O [L-arginine]
- disruption of bacterial biofilm communities [2]: disrupts bacterial biofilm communities
- biofilm architecture [3]: makes the biofilm more diffuse with respect to architecture
- biofilm biomass [3]: reduce biofilm biomass
- killing [3]: No substantial killing was observed
- amount of AI-2 produced from multi-species biofilms [4]: increases as the concentrations of arginine used to treat them increases
- extent of biofilm present (S. gordonii biofilms; 500 mM arginine, saliva, 20 h (FIG. 3)): significantly reduce the extent of biofilm present
- biofilm formation by S. gordonii (S. gordonii biofilms; high (millimolar) concentrations of arginine, dose-dependent): abrogate biofilm formation by S. gordonii
- destabilization of pre-formed biofilms ([5]; 500 mM (FIG. 8)): destabilizes pre-formed multi-species oral biofilms of differing developmental age
- penetration of CPC into biofilm ([5]; 500 mM L-arginine, CPC 0.01 or 0.05% (FIG. 9)): enhance the penetration of CPC
- proportion of Veillonella species and non-cariogenic streptococci in biofilms (saliva derived community; 500 mM treated biofilms): increased
- bacterial diversity (operational taxonomic units, OTU) (saliva derived community; prolonged exposure to 500 mM (FIG. 5A)): increase in bacterial diversity

Compound: autoinducer-2 [AI-2]
- reporter expression from 50S ribosomal protein (SGO_1192) promoter (S. gordonii DL1): minimal differential expression
- reporter expression from catabolite control protein A (SGO_0773; ccpA) promoter (S. gordonii DL1): drastically different gene expression
